In patent publication US7652018B2, “Imidazolidin-2-one derivatives useful as PR modulators” (Wyeth LLC, priority 2006, dated 2010) one finds IC50 and melting point data, which are given here for seven compounds.

The first data set has as its target T1, progesterone receptor (Homo sapiens, UniProt P06401).
T1 construct: determining a compound's effect on alkaline phosphatase activity in T47D cells; endogenous in cells; host or cells: T47D cells
T1 sequence (P06401 1-933): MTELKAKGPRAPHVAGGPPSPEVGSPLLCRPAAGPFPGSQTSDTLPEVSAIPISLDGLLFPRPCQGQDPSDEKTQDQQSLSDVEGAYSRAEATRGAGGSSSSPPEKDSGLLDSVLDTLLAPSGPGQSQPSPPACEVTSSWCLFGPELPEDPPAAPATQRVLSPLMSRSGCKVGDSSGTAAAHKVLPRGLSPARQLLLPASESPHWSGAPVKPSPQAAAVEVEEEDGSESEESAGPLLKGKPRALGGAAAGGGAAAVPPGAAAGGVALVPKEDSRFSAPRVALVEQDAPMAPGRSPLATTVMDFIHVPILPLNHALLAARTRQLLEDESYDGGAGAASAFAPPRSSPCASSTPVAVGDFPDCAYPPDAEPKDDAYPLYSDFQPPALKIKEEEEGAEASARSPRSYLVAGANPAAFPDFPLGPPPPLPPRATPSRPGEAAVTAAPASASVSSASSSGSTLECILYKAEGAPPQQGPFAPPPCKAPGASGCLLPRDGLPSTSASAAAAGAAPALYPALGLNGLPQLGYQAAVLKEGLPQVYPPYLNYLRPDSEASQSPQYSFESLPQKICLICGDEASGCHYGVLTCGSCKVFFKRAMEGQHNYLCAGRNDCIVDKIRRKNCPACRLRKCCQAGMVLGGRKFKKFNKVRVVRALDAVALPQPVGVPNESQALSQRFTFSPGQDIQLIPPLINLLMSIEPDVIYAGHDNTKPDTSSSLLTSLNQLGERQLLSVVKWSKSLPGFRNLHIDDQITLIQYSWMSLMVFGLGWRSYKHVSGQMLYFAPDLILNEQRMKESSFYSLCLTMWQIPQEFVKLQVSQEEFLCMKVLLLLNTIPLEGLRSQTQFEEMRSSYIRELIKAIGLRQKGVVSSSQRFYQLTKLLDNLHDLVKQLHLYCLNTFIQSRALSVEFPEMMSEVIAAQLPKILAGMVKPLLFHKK
Nature of the data set: Alkaline phosphatase activity in T47D cells (progestin antagonist mode). Type of data set: cell-based. To be noted: in the presence of 1 nM progesterone, 24 h, read-out: T47D Alkaline Phosphatase Activity IC50 (nM) or % inhibition. How it is done:
(1) Effects of Progestins and Antiprogestins on Alkaline Phosphatase Activity in T47D Cells
PURPOSE: To identify progestins or antiprogestins by determining a compound's effect on alkaline phosphatase activity in T47D cells.
Culture medium: • DMEM:F12 (1:1) (GIBCO, BRL) supplemented with 5% (v/v) charcoal stripped fetal bovine serum (not heat-inactivated), 100 U/mL penicillin, 100 μg/mL streptomycin, and 2 mM the GlutaMax™ reagent (GIBCO, BRL).
Alkaline phosphatase assay buffer: • I. 0.1M Tris-HCl, pH 9.8, containing 0.2% the Triton® X-100 reagent • II. 0.1M Tris-HCl, pH 9.8, containing 4 mM p-nitrophenyl phosphate (Sigma). B. Cell Culture and Treatment:
Frozen T47D cells were thawed in a 37° C. water bath and diluted to 280,000 cells/mL in culture medium. To each well in a 96-well plate (Falcon, Becton Dickinson Labware), 180 μL of diluted cell suspension was added.
Twenty μL of reference or test compounds diluted in the culture medium was then added to each well. When testing for progestin antagonist activity, reference antiprogestins or test compounds were added in the presence of 1 nM progesterone. The cells were incubated at 37° C. in a 5% CO2/humidified atmosphere for 24 h.
NOTE: For high throughput screening, one concentration of each compound was tested at 0.3 μg/mL. Based on an average molecular weight of 300 g/mol for the compounds in the library, the concentration was approximately 1 μM. Subsequently, active compounds were tested in dose response assays to determine EC50 and IC50. C. Alkaline Phosphatase Enzyme Assay:
At the end of treatment, the medium was removed from the plate. Fifty μL of assay buffer I was added to each well. The plates were shaken in a titer plate shaker for 15 min. Then 150 μL of assay buffer II was added to each well. Optical density measurements were taken at 5 min intervals for 30 min at a test wavelength of 405 nm.
For reference and test compounds, a dose response curve was generated for dose (X-axis) vs. the rate of enzyme reaction (slope) (Y-axis). Square root-transformed data was used for analysis of variance and nonlinear dose response curve fitting for both agonist and antagonist modes. Huber weighting was used to down-weight the effects of outliers. EC50 or IC50 values were calculated from the retransformed values. JMP software (SAS Institute, Inc.) was used for both one-way analysis of variance and non-linear dose response analysis in both single dose and dose response studies.
Progesterone and trimegestone were reference progestins and RU486 was the reference antiprogestin. All reference compounds were run in full dose response curves and the EC50 and IC50 values were calculated.
With `O=C1NCCN1c1nc(-c2ccc(Br)cc2)cs1` [Example 4, 1-[4-(4-Bromophenyl)-1,3-thiazol-2-yl]imidazolidin-2-one], the IC50 is 1070 nM.
The same measure, in the same setting: in the case of `CN1CCN(c2nc(-c3ccc(Br)cc3)cs2)C1=O` [Example 5, 1-[4-(4-Bromophenyl)-1,3-thiazol-2-yl]-3-methylimidazolidin-2-one] it was 733 nM; in that of `CN1CC(C)(C)N(c2nc(-c3ccc(C#N)cc3)cs2)C1=O` [Example 8, 4-[2-(3,5,5-Trimethyl-2-oxoimidazolidin-1-yl)-1,3-thiazol-4-yl]benzonitrile], 35.4 nM.
As to `CC1(C)CN(Cc2ccccc2)C(=O)N1c1nc(-c2ccc(C#N)cc2)cs1` [Example 9, 4-[2-(3-Benzyl-5,5-dimethyl-2-oxoimidazolidin-1-yl)-1,3-thiazol-4-yl]benzonitrile], the half-inhibitory concentration (IC50) is 77.9 nM.

System in another data set: not given
Experiment: not given
Conditions: not given
Consider `C[C@@H]1COC(=O)N1c1nc(-c2ccc(Br)cc2)cs1` [Example 1, (4R)-3-[4-(4-Bromophenyl)-1,3-thiazol-2-yl]-4-methyl-1,3-oxazolidin-2-one], for which the melting point lay in the range of 197 to 199 °C.
Compound `CCC1(CC)COC(=O)N1c1nc(-c2ccc(C#N)cc2)cs1` [Example 2, 4-[2-(4,4-Diethyl-2-oxo-1,3-oxazolidin-3-yl)-1,3-thiazol-4-yl]benzonitrile] had a melting point of 145 to 147 °C.
The same measure, in the same setting: in the case of `CC1(C)COC(=O)N1c1nc(-c2cccc(C#N)c2)cs1` [Example 3, 3-[2-(4,4-dimethyl-2-oxo-1,3-oxazolidin-3-yl)-1,3-thiazol-4-yl]benzonitrile] it was 181 to 183 °C; in that of `O=C1NCCN1c1nc(-c2ccc(Br)cc2)cs1` [Example 4, 1-[4-(4-Bromophenyl)-1,3-thiazol-2-yl]imidazolidin-2-one], 230 to 233 °C.

A word on the IC50: it is the concentration needed to halve the response being measured. As usually defined, the melting point is the temperature of the solid-liquid transition.
